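Where inhibition never reached the appropriate level, the endpoint shown equals the highest concentration tested. Otherwise, values were interpolated linearly from a five-concentration, 48-hour dose response in 96-well plates. TGI: concentration producing complete growth inhibition.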
Experiments:
Experiment in all cases: NCI anticancer screen, dose series, 48 h
[1] = system: MALME-3M melanoma
[2] = system: UO-31 renal
[3] = system: SR leukemia
[4] = system: SN12C renal
[5] = system: HOP-92 NSCLC
[6] = system: MCF7 breast
[7] = system: NCI-H226 lung
[8] = system: MDA-N
[9] = system: SF-268 CNS
[10] = system: SW-620 colon
[11] = system: SF-295 CNS
[12] = system: SNB-19 CNS
[13] = system: A498 renal

Row | Structure (SMILES) | TGI [1] [µM] | TGI [2] [µM] | TGI [3] [µM] | TGI [4] [µM] | TGI [5] [µM] | TGI [6] [µM] | TGI [7] [µM] | TGI [8] [µM] | TGI [9] [µM] | TGI [10] [µM] | TGI [11] [µM] | TGI [12] [µM] | TGI [13] [µM]
2 | CCOC(=O)NC(Nc1cccc(F)c1)(C(F)(F)F)C(F)(F)F | > 100 | > 100 | > 100 | > 100 | > 100 | > 100 | > 100 | > 100 | > 100 | > 100 | > 100 | > 100 | > 100
3 | CCOC(=O)CCN1C(=O)c2ccc(NC(=O)C(=O)O)cc2S1(=O)=O | > 100 | > 100 | > 100 | > 100 | > 100 | > 100 | > 100 | > 100 |  | > 100 | > 100 | > 100 | > 100
4 | CCOC(=O)NC(OCCN(C)C)(C(F)(F)F)C(F)(F)F | > 100 | > 100 | > 100 | > 100 | > 100 | > 100 | > 100 | > 100 | > 100 | > 100 | > 100 | > 100 | > 100
5 | CCOC(=O)/C(=C\NC[C@@H](C)O)c1nc2ccccc2[nH]1 | > 100 | 4.02 | 84.3 | > 100 | > 100 | > 100 |  | > 100 | > 100 | > 100 | > 100 | > 100 | > 100
6 | CCOC(=O)c1nc2cc(F)c(F)cc2nc1NCc1cc(OC)c(OC)c(OC)c1 | > 100 | > 100 | > 100 | > 100 | > 100 | > 100 |  | > 100 | > 100 | > 100 | > 100 | > 100 | > 100
7 | CSC1=C(C)S/C(=C\c2ccc(/C=C3\SC(C)=C(SC)S3)cc2)S1 | > 100 | > 100 | > 100 | > 100 | > 100 | > 100 | > 100 | > 100 | > 100 | > 100 | > 100 | > 100 | > 100
8 | Clc1ccccc1-c1nn2c(CCCCCCCCc3nnc4sc(-c5ccccc5Cl)nn34)nnc2s1 | > 100 | > 100 | > 100 | > 100 | > 100 | > 100 | > 100 | > 100 | > 100 | > 100 | > 100 | > 100 | > 100
9 | CC(=O)O[C@H]1CC[C@@]2(C)C(=CC[C@H]3[C@@H]4C[C@H](N5CCN(C)CC5)[C@H](OC(C)=O)[C@@]4(C)CC[C@@H]32)C1 | 24.8 | > 90.9 | 11.4 | 67.8 | 92.7 | 15.3 | > 85.6 | 26.5 | 42.7 | 29.8 | 45.7 | 58.9 | 48.3
10 | COc1ccc(/C=C/C(=N/NC(=O)N/N=C(/C=C/c2ccc(OC)cc2)C(C)C)C(C)C)cc1 | > 100 | > 100 | > 100 | > 100 | > 100 | > 100 | > 100 | > 100 | > 100 | > 100 | > 100 | > 100 | > 100
11 | CCOc1cc(NC(C)=O)ccc1C(=O)NN1C(=O)C(Cl)C1c1ccc(O)c(OC)c1 (centres undefined) | 22 | 11.1 | 19.5 | 31 | 32.3 | 30.4 | 48.3 | 31.9 | 35.9 | 60.1 | 39.1 | 29.5 | 28.4
12 | COc1ccc2c(c1OC)C(Br)CCC(Br)(Br)C2=O (centres undefined) | 22.6 | 14 | 4.22 | 16.7 | 9.44 | 21.3 | 30.1 | 14.2 | 27.4 | 6.61 | 32.5 | 28.9 | 29.4
13 | c1ccc2nc3c(nc2c1)sc1nc2ccccc2n13 | > 100 | > 100 | > 100 | > 100 | > 100 | > 100 | > 100 | > 100 | > 100 |  | > 100 | > 100 | > 100
14 | O=C(c1c(F)c(F)c(F)c(F)c1F)n1c(=O)[nH]c2ccccc21 | 28.5 | 25.2 | 8.8 | 28.3 | 11.4 | 16.8 | 33.4 | 20.5 | 34.1 | 16.1 | 30.6 | 28.2 | 33.6
15 | COc1ccc(-c2c(C#N)c(N)n(C3OCC(O)C(O)C3O)c(=S)c2C#N)cc1 (centres undefined) | > 100 | > 100 | > 100 | > 100 |  | > 100 | > 100 | > 100 | > 100 | > 100 | > 100 | > 100 | > 100
16 | Cc1ccc([N+](=O)[O-])cc1S(=O)(=O)Nc1ccc(C2=NOC(c3ccccc3)C2)cc1 (centres undefined) | 68.2 | 72.1 | 12.1 | 71.7 | 61.2 | 16.5 | > 100 | 6.38 | > 100 | 59.1 | 19.7 | 55.5 | 56.8
17 | O=c1oc2ccccc2cc1-c1nc2ccccc2c(=O)[nH]1 | > 100 | > 100 | > 100 | > 100 | > 100 | > 100 | > 100 | > 100 | > 100 | > 100 | > 100 | > 100 | 
18 | CCCCCCCCCCCCOCCCCCCCCC/C=C/c1ccc2c(c1)OCCOCCOCCOCCO2 | 66.8 | 39.4 | 49.1 | 50.8 | 26.5 | 32 | 36.7 | 36.2 | 48.2 | > 100 | 34.2 | 77.6 | 

Row | Structure (SMILES) | TGI [1] [µM] | TGI [2] [µM] | TGI [3] [µM] | TGI [4] [µM] | TGI [5] [µM] | TGI [6] [µM] | TGI [7] [µM] | TGI [8] [µM] | TGI [9] [µM] | TGI [10] [µM] | TGI [11] [µM] | TGI [12] [µM] | TGI [13] [µM]
19 | CC(C)(C)c1cc(C(C)(C)C)c(P=C(Cl)Cl)c(C(C)(C)C)c1 (centres undefined) | > 100 | > 100 | > 100 | > 100 | > 100 | > 100 | > 100 | > 100 | > 100 | > 100 | > 100 | > 100 | > 100
20 | Cc1cccc(/C=N/NC(=S)NC2CCCCC2)n1 | > 86.4 | > 89.5 | > 78.3 | > 100 | 61.8 | > 100 | > 74.8 | > 93.1 | > 100 | > 100 | > 100 | > 100 | > 71.4
21 | COc1ccc(C[C@H]2NC[C@H](OC(C)=O)[C@H]2OC(C)=O)cc1 | 0.561 | 0.371 | 3.45 | 0.752 | 0.356 | > 100 | 1.08 | 0.732 | 0.308 | 1.14 | 4.26 | 0.446 | 4.27
22 | O=C1c2scc(-c3ccc(F)cc3)c2-n2cccc21 | > 100 | > 100 | 44 | 87.9 |  | > 100 | > 100 | 28.8 | > 100 | > 100 | > 100 | > 100 | 3.1
23 | CCOC(=O)C(C)c1nc2cc(F)c(N3CCOCC3)cc2[nH]c1=O (centres undefined) | > 100 | > 100 | > 100 | > 100 | > 100 | > 100 | > 100 | > 100 | > 100 | > 100 | > 100 | > 100 | > 100
24 | CC(C)/C(Cl)=N/OC(NC(=O)Nc1ccc(Cl)c(Cl)c1)(C(F)(F)F)C(F)(F)F | 4.55 | 31.3 | > 100 | 33.9 | 29.7 | > 50.2 | 42.8 | 32.3 | 39.4 | 3.92 | 38.5 | 41 | 34.7
25 | COC(=O)C1=C(O)C(C(=O)OC)[C@]2(O)[C@H](C(=O)OC)[C@H]1C[C@@H](c1ccc(O)cc1)[C@H]2C(=O)OC (some centres undefined) | > 100 | > 100 | > 100 | > 100 | > 100 | > 100 | > 100 | > 100 | > 100 | > 100 | 58.8 | > 100 | > 100
26 | COC(=O)C1=C(O)C(C(=O)OC)[C@]2(O)[C@H](C(=O)OC)[C@H]1C[C@@H](c1ccc(Cl)cc1Cl)[C@H]2C(=O)OC (some centres undefined) | 20.6 | 21.1 | 19.2 | 22.2 | 23.8 | 23 | 16.3 | 11 | 38.1 | 57 | 31.6 | 24.3 | 30.4
27 | Nc1nc([O-])c([I+]c2ccccc2)c(=O)[nH]1 | > 100 | > 100 | > 100 | > 100 | > 100 | > 100 | > 100 | > 100 | > 100 | > 100 | > 100 | > 100 | > 100
28 | Cc1ccc(/C(O)=C/c2nc3ccccc3nc2NC23CC4CC(CC(C4)C2)C3)cc1 | > 10 |  | > 10 | > 10 | > 10 | > 10 |  | > 10 | > 10 | > 10 | > 10 | > 10 | 
29 | COP(=N[Si](C)(C)C)(OC)OC | > 100 | > 100 | > 100 | > 100 | > 100 | > 100 | > 100 | > 100 | > 100 | > 100 |  | > 100 | > 100
30 | COC(=O)/C=C/COCC1C2CCC(=O)C21 (centres undefined) | > 100 | > 100 | > 100 | > 100 | > 100 | > 100 | > 100 | > 100 | > 100 | > 100 | > 100 | > 100 | 
31 | CN(C)Cc1cc(N=Nc2c(Cl)cccc2Cl)ccc1O | > 100 | > 100 | > 100 | > 100 | > 100 | > 100 | > 100 | > 100 | > 100 | > 100 | > 100 | > 100 | > 100
32 | O=C(/C=C/c1ccsc1)c1cccs1 | > 100 | 34.3 | > 10 | 41.9 | 93.5 | 52.2 | > 100 | > 100 | 81.2 | 32.3 | > 100 | > 100 | > 100
33 | CCOC(=O)N(C)CCC1CC=CC(=O)C1c1cccc(OC)c1OC (centres undefined) | 60.1 | 35.9 | 67.1 | 39.7 | > 100 | 56.6 |  | 36.4 | 60 | > 100 | 98.8 | 85.6 | > 100
34 | CCOC(=O)Nn1cnnc1Cc1ccccc1 | > 100 | > 100 | > 100 | > 100 | > 100 | > 100 | > 100 | > 100 | > 100 | > 100 | > 100 | > 100 | > 100
35 | N#CCN(Cc1ccccc1)[C@H]1CCC[C@]1(O)/C=C/c1ccc2c(c1)OCO2 | 32.1 | > 100 | 40.2 |  | 60.9 | 39.6 | 44.4 | 35.7 | > 100 | 43.3 | 31.4 | 76.3 | > 100

From PubChem BioAssay (NCI)
